{
  "source": "patent US8735140B2",
  "about": "“Preservation and composition of bioprocess algae for production of lipids, seedstock, and feed” (Kuehnle AgroSystems, Inc., priority 2008, dated 2014)",
  "key": {"Tetraselmis KAS633": {"tested_on": "Tetraselmis KAS633", "test": "Trehalose preservation, storage by embedding in alginate mat", "assay_type": "cell-based", "procedure": "(§1) Flask cultures (40 ml) of cells are grown to mid-log phase with a density between 3×10^6 and 3×10^7 cells/ml, and are centrifuged. Culture medium is removed after centrifugation, resulting in more concentrated algae cells. Cells are then re-suspended in fresh medium and left overnight. Cells are centrifuged again the next day in order to remove the medium, and are then re-suspended in fresh or salt water without any nutrient. The cell density of the suspension is determined prior to storage under the various treatments. Cells in 40 ml flask cultures are grown to mid-log phase with a density of between 3×10^6 and 3×10^7 cells/ml, and are centrifuged. Culture medium is removed after centrifugation, resulting in more concentrated algae cells. Cells are then re-suspended in ideal glass solution consisting of fresh culture medium and trehalose at a concentration of 0.1M, 0.3M, and 0.5M (dihydrate trehalose 100 from Hayashibara Co. Ltd, Okayama, Japan), respectively, and left overnight with mild agitation. Cells are centrifuged again to remove the ideal glass solution the next day, and are re-suspended in fresh or salt water without any nutrient. The cell density of the resulting suspension is determined prior to storage under the various treatments. (Some cells were also treated with a 0.5M sorbitol solution). In one specific embodiment, 2% (w/v) alginate solution (Sigma-Aldrich A-2033) and 3% CaCl2 solution (Sigma-Aldrich C1016) are prepared in salt water or fresh water medium as required by specific algae species, and autoclave sterilized. Then, 2.0 ml 2% alginate solution is pipetted into each well of a BD Falcon 12-well plate. 0.2 ml algae cell suspension is then pipetted into each well and the mixture is further stirred. The alginate-cell mixture is further sprayed with 3% CaCl2 solution in a sterile pump bottle, allowing the alginate to solidify. After solidification, plates are closed and placed under low light and at ambient temperature. After stored under the above preservation conditions for 5 months, algae cells can be rejuvenated by overlaying alginate/algae mixture with 3.0 ml sterile 5.0% NaPolyphosphate (Sigma Aldrich 305553) and allowing to the mixture sit overnight. The algae/alginate/NaPolyphosphate mixture is then removed from the 12-well plate, diluted with fresh medium (3 parts fresh medium to 1 part cell suspension) and placed under light. Cell viability is determined by comparing the cell growth in control set with the experimental set. Specifically, cell counts are performed on all samples. The averaged density value (in cells per ml) for all the cultures after treatment is defined as “rejuvenation cell count.” In some samples, the percent recovery of cells immediately after storage is also determined. The formulae are illustrated as follows: Growth=(rejuvenation cell count)/(initial cell count) Cell recovery after storage=(cell density after storage)/(initial cell density), with controls set at 100% cell recovery. Viability after storage and rejuvenation in nutrient medium=(Growth of treatment)/(Growth of control)×100%, with controls set at 100% viability"}, "Chlorella KAS503": {"tested_on": "Chlorella KAS503", "test": "Trehalose preservation, storage by embedding in alginate mat", "assay_type": "cell-based", "procedure": "as §1"}, "Chlorella KAS603": {"tested_on": "Chlorella KAS603", "test": "Trehalose preservation, storage by embedding in alginate mat", "assay_type": "cell-based", "procedure": "as §1"}, "Synechocystis KAS635": {"tested_on": "Synechocystis KAS635", "test": "Trehalose preservation, storage by embedding in alginate mat", "assay_type": "cell-based", "settings": "0.3M trehalose in BG11 only", "procedure": "as §1"}, "Dunaliella cells": {"tested_on": "Dunaliella cells", "test": "Trehalose loading of Dunaliella, shelf storage and recovery in fresh medium", "assay_type": "cell-based, D. salina", "settings": "0.5 and 1.0 M trehalose", "procedure": "First, cells in log phase are spun down at 1500×g for 10 minutes. Supernatant is decanted and the pellet is gently re-suspended in a minimal volume of medium and placed in a 1 L flask. The cell count of the slurry is 1.776×10^8 cells/ml. Next, four 50 ml tubes are prepared with aliquots of 21 ml of slurry in each tube prior to re-suspension, in a defined extracellular concentration of α-trehalose (α-D-glycosyl-α-D-glycosylpyranoside, Hayashibara Co., in Melis medium at a salinity of 1.0 M NaCl (referred to as 1M Melis). The cells are then spun down again and the pellets are re-suspended in 200 ml of treatment medium, that is, 1M Melis with or without added trehalose. The four preservation treatments in 1M Melis are performed in the following four sets in triplicate: no trehalose ([…]), 0.5M trehalose, 1.0M trehalose, and 2.0M trehalose. The cell density after re-suspension is at 1.865×10^7 cells/ml. During the re-suspension of cell pellets in 1M Melis, 2.0M trehalose, the pellet is not completely broken apart, yielding visible clumps in the suspension. After the re-suspension, cells are transferred to 250 ml flasks and left on the shelf at a temperature of 23-27° C. and light Intensity <5 μE/m^2-sec, without any agitation or aeration. […]"}, "[1]": {"settings": "0.3M trehalose in F/2, 21 weeks storage and 3 weeks rejuvenation"}, "[2]": {"settings": "0.3M trehalose in F/2, 21 weeks storage and 3 weeks rejuvenation in nutrient medium"}, "[3]": {"settings": "0.3M trehalose in F/2, 21 weeks storage and 3 weeks rejuvenation, 0M control = 100%"}, "[4]": {"settings": "0.3M trehalose in F/2, 21 weeks storage in water (no nutrients)"}, "[5]": {"settings": "0.3M trehalose in F/2, 21 weeks storage, 0M control = 100%"}, "[6]": {"settings": "0.3M trehalose in F/2, 21 weeks storage, density after storage/initial density"}},
  "data": [
    {"smiles": "OC[C@H]1O[C@H](O[C@H]2O[C@H](CO)[C@@H](O)[C@H](O)[C@H]2O)[C@H](O)[C@@H](O)[C@@H]1O", "note": "[trehalose, α-D-glycosyl-α-D-glycosylpyranoside]", "values": [
      {"measurement": "Growth", "setting": "Tetraselmis KAS633; [1]", "value": 4.63},
      {"measurement": "Cell number after storage & regrowth", "setting": "Tetraselmis KAS633; [2]", "value": "1.375 × 10^7 cells/ml"},
      {"measurement": "% Viability", "setting": "Tetraselmis KAS633; [3]", "value": "(102%)"},
      {"measurement": "Cell number after storage", "setting": "Tetraselmis KAS633; [4]", "value": "2.97 × 10^6 cells/ml"},
      {"measurement": "Cell recovery after storage, relative to control", "setting": "Tetraselmis KAS633; [5]", "value": "(142%)"},
      {"measurement": "Cell recovery after storage", "setting": "Tetraselmis KAS633; [6]", "value": 2.22},
      {"measurement": "Growth", "setting": "Chlorella KAS503; [1]", "value": 5.46},
      {"measurement": "Cell number after storage & regrowth", "setting": "Chlorella KAS503; [2]", "value": "1.012 × 10^8 cells/ml"},
      {"measurement": "Cell number after storage", "setting": "Chlorella KAS503; [4]", "value": "1.860 × 10^7 cells/ml"},
      {"measurement": "Cell recovery after storage, relative to control", "setting": "Chlorella KAS503; [5]", "value": "(84%)"},
      {"measurement": "Cell recovery after storage", "setting": "Chlorella KAS503; [6]", "value": 1.8},
      {"measurement": "Growth", "setting": "Chlorella KAS603; [1]", "value": 2.72},
      {"measurement": "Cell number after storage & regrowth", "setting": "Chlorella KAS603; [2]", "value": "4.480 × 10^7 cells/ml"},
      {"measurement": "% Viability", "setting": "Chlorella KAS603; [3]", "value": "(149%)"},
      {"measurement": "Cell number after storage", "setting": "Chlorella KAS603; [4]", "value": "1.646 × 10^7 cells/ml"},
      {"measurement": "Cell recovery after storage, relative to control", "setting": "Chlorella KAS603; [5]", "value": "(221%)"},
      {"measurement": "Growth", "setting": "Synechocystis KAS635; 21 weeks storage and 3 weeks rejuvenation", "value": 4.72},
      {"measurement": "Cell number after storage & regrowth", "setting": "Synechocystis KAS635; 21 weeks storage and 3 weeks rejuvenation in nutrient medium", "value": "4.620 × 10^7 cells/ml"},
      {"measurement": "% Viability", "setting": "Synechocystis KAS635; 21 weeks storage and 3 weeks rejuvenation, 0M control = 100%", "value": 129, "unit": "%"},
      {"measurement": "Cell number after storage", "setting": "Synechocystis KAS635; 21 weeks storage in water (no nutrients)", "value": "9.798 × 10^6 cells/ml"},
      {"measurement": "Cell recovery after storage, relative to control", "setting": "Synechocystis KAS635; 21 weeks storage, 0M control = 100%", "value": "(180%)"},
      {"measurement": "Cell recovery after storage", "setting": "Synechocystis KAS635; 21 weeks storage, density after storage/initial density", "value": 0.29},
      {"measurement": "Functional recovery", "setting": "Dunaliella cells; 4.5-week period, FIG. 3", "value": "exhibit functional recovery"},
      {"measurement": "Functional recovery", "setting": "Dunaliella cells; 8-week period, no cell growth observed", "value": "negligible functional recovery"}
    ]}
  ]
}
